Reference: US5670487A, “Composition for protecting and/or combating blemishes on and/or ageing of the skin, and uses thereof” (L'Oreal, priority 1995, dated 1997)

What was measured:
[1] = Anti-free-radical activity: inhibition of the production of ethylene from methionine under UVA; type: biochemical; conditions: UVA 365 nm, 1 J/cm^2, pH 7.4, average of 3 tests
Description: The following were introduced in order into a Petri dish 32 mm in diameter:
1.4 ml of 50 mM phosphate buffer (pH=7.4), 100 μl of 200 mM methionine solution
100 μl of 4 mM ferric chloride solution,
100 μl of 4 mM EDTA (ethylenediaminetetraacetic acid) solution, 100 μl of 400 mM NADH (nicotinamideadeninedinucleotide, reduced form) solution, 100 μl of 2 mM riboflavin solution.
Total volume of the mixture: 2 ml.
The Petri dish was then placed in an aluminum crucible and covered with a quartz cell so as to be exposed to UVA rays (365 nm) at a dose of 1 J/cm^2. The mixture, composed of NADH, riboflavin, ferric chloride and EDTA, when subjected to exposure to the UVA rays, generates reduced oxygen species: O2 .cndot.^-, H2 O2, and mainly the hydroxyl radical .cndot.OH. The latter reacts with methionine to release ethylene. The amount of ethylene was measured by gas chromatography.
The smaller the amount of free radicals formed, the smaller the amount of ethylene released. The results are expressed as a percentage of inhibitory power corresponding to the percentage decrease in the production of ethylene relative to the control (containing 100 μl of phosphate buffer replacing the test product).
The following substances studied were introduced using a micropipette: […]
terephthalylidene dicamphor sulphonic acid […]

skin = assay: UVA sun protection factor (PF = protected MPD/non-protected MPD) on the back of volunteers; type: in vivo, human (healthy adults of both sexes); conditions: for UVA skin protection (assessment in words): based on the UVA sun protection factors 1.6, 2.7 and 3.4; for UVA sun protection factor: 2±0.02 μl/cm^2, UVA 320-400 nm, read approximately 2 h after exposure
Description: Potentiation of the sun protection factor
The aim of the test is to show the ability of the compositions of the invention to protect the skin against UVA by virtue of a high UVA protection factor.
Ten individuals were tested. They were healthy adults of both sexes. An area of skin located on the back of each of the volunteers was subjected to solar exposure after defining the skin type. The exposure was carried out with a UVA spectrum alone (320 nm to 400 nm), supplied by a 150 W xenon lamp fitted with a WG 335 filter 3 mm in thickness and a UG 11 filter 1 mm in thickness. The UV radiation was conducted by 6 liquid, flexible light guides, making it possible to deliver doses of from 6 to 45 joules/cm^2 in a 50% geometric progression.
The application was a single dose, in the open air, of 2±0.02 μl/cm^2, i.e., approximately 0.15 ml of test product per individual, on an area of 75 cm^2, measured with a sterile 1 ml Tuberculin syringe graduated to 1/1000 and having a centered cone.
Exposure was approximately 15 min after application of the product. Macroscopic examination of the exposed areas of the skin was performed approximately 2 h after exposure, to evaluate the immediate and permanent pigmentation reactions. The minimum pigmenting dose on the area protected by the product applied (protected MPD) and that on the area in which no product had been applied (non-protected MPD) was performed simultaneously.
The protection factor PF is then calculated as follows:
PF=protected MPD/non-protected MPD
The test was carried out with 3 compositions, each having the same support, containing arbutin, the UV screening agent (terephthalylidene dicamphor sulphonic acid), and the combination of arbutin and the UV screening agent, respectively.

Compound | % inhibition (percentage decrease in the production of ethylene relative to the control) ([1]; 0.2% terephthalylidene dicamphor sulphonic acid) [%] | UVA skin protection (assessment in words) (skin) | UVA sun protection factor (skin; composition with 1% terephthalylidene dicamphor sulphonic acid) | % inhibition (percentage decrease in the production of ethylene relative to the control) ([1]; 0.2% arbutin) [%] | UVA sun protection factor (skin; composition with 5% arbutin)
CC1(C)C2CCC1(CS(=O)(=O)O)C(=O)C2=Cc1ccc(C=C2C(=O)C3(CS(=O)(=O)O)CCC2C3(C)C)cc1 [benzene-1,4-bis(3-methylidenecamphor-10-sulphonic acid)] | 44.7 ± 1.7 | significant skin protection | 2.7 |  | 
OC[C@H]1O[C@@H](Oc2ccc(O)cc2)[C@H](O)[C@@H](O)[C@@H]1O [arbutin, hydroquinone-beta-D-glucopyranoside] |  | negligible skin protection |  | 39.0 ± 0.6 | 1.6
